Assay results from patent US20220356398A1, “Composition and Method for Improving the Water Transport Characteristics of Hydrophobic Soils” (Ethox Chemicals, LLC, priority 2021, published 2022).

Tests used:
[1] = Humic acid removal (detergency)
Text: (§1) Soil treatment polymers are relatively non-polar organic materials with limited water solubility.

[2] = Compatibility with the soil treatment polymers; assay type: physicochemical
Text: as §1

monophosphate of POE (6) decyl alcohol
humic acid removal properties [1]: good humic acid removal properties | compatibility with the soil treatment polymers [2]: good compatibility
